Data published in patent US20240307353A1, “JAK1 PATHWAY INHIBITORS FOR THE TREATMENT OF ASTHMA” (Incyte Corporation, priority 2023, published 2024).

Tests used:
[1] = target: human JAK1 (a.a. 837-1142) (Homo sapiens, UniProt P23458); experiment: In vitro JAK kinase assay (HTRF), JAK1; type: biochemical; conditions: 1 mM ATP
Protocol: (§1) The catalytic activity of JAK1, JAK2 or JAK3 was assayed by measuring the phosphorylation of a biotinylated peptide. The phosphorylated peptide was detected by homogenous time resolved fluorescence (HTRF). […] Reactions were carried out at room temperature for 1 hour and then stopped with 20 μL 45 mM EDTA, 300 nM SA-APC, 6 nM Eu-Py20 in assay buffer (Perkin Elmer, Boston, MA). Binding to the Europium labeled antibody took place for 40 minutes and HTRF signal was measured on a Fusion plate reader (Perkin Elmer, Boston, MA).

[2] = target: JAK2 (a.a. 828-1132) (Homo sapiens (Human), UniProt O60674); experiment: In vitro JAK kinase assay (HTRF), JAK2 versus JAK1; type: biochemical; conditions: IC50 ratio, 1 mM ATP
Sequence of JAK2 (a.a. 828-1132) (O60674 828-1132): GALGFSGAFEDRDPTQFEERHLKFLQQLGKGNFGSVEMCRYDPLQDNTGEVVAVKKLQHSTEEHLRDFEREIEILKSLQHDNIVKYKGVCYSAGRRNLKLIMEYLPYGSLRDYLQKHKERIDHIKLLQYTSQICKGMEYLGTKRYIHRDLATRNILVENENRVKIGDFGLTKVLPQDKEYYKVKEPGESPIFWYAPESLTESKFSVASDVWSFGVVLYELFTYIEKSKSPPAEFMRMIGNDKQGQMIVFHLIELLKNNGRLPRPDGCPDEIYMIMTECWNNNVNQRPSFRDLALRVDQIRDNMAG
Protocol: as §1

Structure (SMILES)	IC50 [1]	JAK2/JAK1 [2]
N#CC[C@]1(n2cc(-c3ncnc4[nH]ccc34)cn2)C[C@H](N2CCN(C(=O)c3ccnc(C(F)(F)F)n3)CC2)C1 [Compound 10, [trans-1-[4-(7H-pyrrolo[2,3-d]pyrimidin-4-yl)-1H-pyrazol-1-yl]-3-(4-{[2-(trifluoromethyl)pyrimidin-4-yl]carbonyl}piperazin-1-yl)cyclobutyl]acetonitrile]	< 10 nM	>10
N#CCC1(n2cc(-c3ncnc4[nH]ccc34)cn2)CN(C2CCN(C(=O)c3ccnc(C(F)(F)F)n3)CC2)C1 [Compound 3, [3-[4-(7H-pyrrolo[2,3-d]pyrimidin-4-yl)-1H-pyrazol-1-yl]-1-(1-{[2-(trifluoromethyl)pyrimidin-4-yl]carbonyl}piperidin-4-yl)azetidin-3-yl]acetonitrile]	< 10 nM	>10
C[C@H](O)CNCc1cc(OC2CCN([C@H]3C[C@](CC#N)(n4cc(-c5ncnc6[nH]ccc56)cn4)C3)CC2)nc(C(F)(F)F)c1 [Compound 25, {trans-3-(4-{[4-({[(2S)-2-hydroxypropyl]amino}methyl)-6-(trifluoromethyl)pyridin-2-yl]oxy}piperidin-1-yl)-1-[4-(7H-pyrrolo[2,3-d]pyrimidin-4-yl)-1H-pyrazol-1-yl]cyclobutyl}acetonitrile]	< 10 nM	>10
C[C@@H](O)c1nc2cnc3ccsc3c2n1[C@H]1CC[C@H](CC#N)OC1 [Compound 5, ((2R,5S)-5-{2-[(1R)-1-hydroxyethyl]-1H-imidazo[4,5-d]thieno[3,2-b]pyridin-1-yl}tetrahydro-2H-pyran-2-yl)acetonitrile]	< 100 nM	>10
C[C@@H](CO)NCc1cc(OC2CCN([C@H]3C[C@](CC#N)(n4cc(-c5ncnc6[nH]ccc56)cn4)C3)CC2)nc(C(F)(F)F)c1 [Compound 23, {trans-3-(4-{[4-({[(1S)-2-hydroxy-1-methylethyl]amino}methyl)-6-(trifluoromethyl)pyridin-2-yl]oxy}piperidin-1-yl)-1-[4-(7H-pyrrolo[2,3-d]pyrimidin-4-yl)-1H-pyrazol-1-yl]cyclobutyl}acetonitrile]	< 10 nM	>10
CCNCc1cc(O[C@H]2CC[C@@H](N3CC(CC#N)(n4cc(-c5ncnc6[nH]ccc56)cn4)C3)CC2)nc(C(F)(F)F)c1 [Compound 19, {1-(cis-4-{[4-[(ethylamino)methyl]-6-(trifluoromethyl)pyridin-2-yl]oxy}cyclohexyl)-3-[4-(7H-pyrrolo[2,3-d]pyrimidin-4-yl)-1H-pyrazol-1-yl]azetidin-3-yl}acetonitrile]	< 10 nM	>10
C[C@@H](O)CNCc1cc(OC2CCN([C@H]3C[C@](CC#N)(n4cc(-c5ncnc6[nH]ccc56)cn4)C3)CC2)nc(C(F)(F)F)c1 [Compound 24, {trans-3-(4-{[4-({[(2R)-2-hydroxypropyl]amino}methyl)-6-(trifluoromethyl)pyridin-2-yl]oxy}piperidin-1-yl)-1-[4-(7H-pyrrolo[2,3-d]pyrimidin-4-yl)-1H-pyrazol-1-yl]cyclobutyl}acetonitrile]	< 10 nM	>10
N#CCC1(n2cc(-c3ncnc4[nH]ccc34)cn2)CN([C@H]2CC[C@@H](Oc3cc(CCO)nc(C(F)(F)F)n3)CC2)C1 [Compound 18, {1-(cis-4-{[6-(2-hydroxyethyl)-2-(trifluoromethyl)pyrimidin-4-yl]oxy}cyclohexyl)-3-[4-(7H-pyrrolo[2,3-d]pyrimidin-4-yl)-1H-pyrazol-1-yl]azetidin-3-yl}acetonitrile]	< 10 nM	>10
N#CC[C@]1(n2cc(-c3ncnc4[nH]ccc34)cn2)C[C@H](N2CCC(Oc3cc(CN4CC(O)C4)cc(C(F)(F)F)n3)CC2)C1 [Compound 11, {trans-3-(4-{[4-[(3-hydroxyazetidin-1-yl)methyl]-6-(trifluoromethyl)pyridin-2-yl]oxy}piperidin-1-yl)-1-[4-(7H-pyrrolo[2,3-d]pyrimidin-4-yl)-1H-pyrazol-1-yl]cyclobutyl}acetonitrile]	< 10 nM	>10
N#CCC(C1CCN(c2cccc(Cl)n2)C1)n1cc(-c2ncnc3[nH]ccc23)cn1 (single isomer, unassigned) [Compound 6, 3-[1-(6-chloropyridin-2-yl)pyrrolidin-3-yl]-3-[4-(7H-pyrrolo[2,3-d]pyrimidin-4-yl)-1H-pyrazol-1-yl]propanenitrile]	< 10 nM	>10
N#CCC1(n2cc(-c3ncnc4[nH]ccc34)cn2)CN([C@H]2CC[C@@H](Oc3cc(CN4CC[C@@H](O)C4)cc(C(F)(F)F)n3)CC2)C1 [Compound 21, {1-(cis-4-{[4-{[(3R)-3-hydroxypyrrolidin-1-yl]methyl}-6-(trifluoromethyl)pyridin-2-yl]oxy}cyclohexyl)-3-[4-(7H-pyrrolo[2,3-d]pyrimidin-4-yl)-1H-pyrazol-1-yl]azetidin-3-yl}acetonitrile]	< 10 nM	>10
N#CC[C@]1(n2cc(-c3ncnc4[nH]ccc34)cn2)C[C@H](N2CCC(Oc3cc(CN4CCC[C@@H]4CO)cc(C(F)(F)F)n3)CC2)C1 [Compound 13, {trans-3-(4-{[4-{[(2R)-2-(hydroxymethyl)pyrrolidin-1-yl]methyl}-6-(trifluoromethyl)pyridin-2-yl]oxy}piperidin-1-yl)-1-[4-(7H-pyrrolo[2,3-d]pyrimidin-4-yl)-1H-pyrazol-1-yl]cyclobutyl}acetonitrile]	< 10 nM	>10
C[C@H](NC(=O)c1cc(F)c(N2CC(CC#N)(n3cc(-c4ncnc5[nH]ccc45)cn3)C2)cc1F)C(F)(F)F [Compound 16, 4-{3-(cyanomethyl)-3-[4-(7H-pyrrolo[2,3-d]pyrimidin-4-yl)-1H-pyrazol-1-yl]azetidin-1-yl}-2,5-difluoro-N-[(1S)-2,2,2-trifluoro-1-methylethyl]benzamide]	< 10 nM	>10
N#CCC1(n2cc(-c3ncnc4[nH]ccc34)cn2)CN([C@H]2CC[C@@H](Oc3cc(CN4CC[C@H](O)C4)cc(C(F)(F)F)n3)CC2)C1 [Compound 22, {1-(cis-4-{[4-{[(3S)-3-hydroxypyrrolidin-1-yl]methyl}-6-(trifluoromethyl)pyridin-2-yl]oxy}cyclohexyl)-3-[4-(7H-pyrrolo[2,3-d]pyrimidin-4-yl)-1H-pyrazol-1-yl]azetidin-3-yl}acetonitrile]	< 10 nM	>10
N#CCC(C1CCN(c2nc3cccnc3o2)C1)n1cc(-c2ncnc3[nH]ccc23)cn1 (centres unmarked) [Compound 7, 3-(1-[1,3]oxazolo[5,4-b]pyridin-2-ylpyrrolidin-3-yl)-3-[4-(7H-pyrrolo[2,3-d]pyrimidin-4-yl)-1H-pyrazol-1-yl]propanenitrile]	< 10 nM	>10
N#CCC(CN1CCN(C(=O)c2ccc(C#N)cc2F)CC1)n1cc(-c2ncnc3[nH]ccc23)cn1 (centres unmarked) [Compound 8, 4-[(4-{3-cyano-2-[4-(7H-pyrrolo[2,3-d]pyrimidin-4-yl)-1H-pyrazol-1-yl]propyl}piperazin-1-yl)carbonyl]-3-fluorobenzonitrile]	< 10 nM	>10
